# Experimental data taken from US8946436B2, “Oxazolidinone compounds and their uses in preparation of antibiotics” (Sichuan Gooddoctor Pharmaceutical Group Co., Ltd., priority 2011, dated 2015).
# What was measured:
# MRSA [1] = experiment: Minimum bactericidal concentration (MBC) test, MRSA; format: cell-based, methicillin resistant Staphylococcus aureus
# Procedure: (§1) Staphylococcus and Enterococcus faecium were incubated in Mueller-Hinton agar medium (MHA medium) at 35° C. for 16-20 h; S. pneumoniae was incubated in Cation-Adjusted Mueller-Hinton Broth medium (CAMHB medium) supplemented with 2.5-5.5% (v/v) lysed horse blood (LHB) at 35° C. for 20-24 h; and Streptococcus were incubated in sheep blood-containing medium (prepared by addition of 5% defibrinated sheep blood into MHA media) at 35° C. for 20-24 h in 5% CO2 environment (CO2 incubator). Before test of the compound activity, each stock of the bacteria strains was activated and colonized in the following manner: the stock was transferred and cultured in a liquid culture medium, the culture liquid was smeared onto an agar plate with an inoculating loop to obtain bacterial colonies on the plate after incubation, and then a colony of the bacteria was chose to be suspended into the liquid culture medium for performing the test of compound activity. As a result, fresh bacteria cells were applied to the test. The standard strains were used as sensitive bacterium to control the quality of the experiments, and a plate or tube containing no antibacterial compounds is used as a blank control for the growth of test strains.
# (§2) The minimal inhibitory concentration (MIC) of the test compounds on the strains of Streptococcus pneumoniae was determined by a standard broth macrodilution method, while the MIC of the test compounds on the other bacteria stains was determined by standard agar double dilution methods. The concentration of the test compounds was in the range of 32 mg/L-0.016 mg/L. The bacterial suspensions to be tested were inoculated by a multipoint inoculator, and the inoculation amount at each point is 10^4 CFU. The MIC of the test compound to each strain of the bacteria was determined.
# (§3) The MBC was determined by a tube double dilution method. Solutions of the test compounds was prepared and serially diluted. Each of the solutions was mixed with a bacterium suspension (10^6 CFU/mL), and then was incubated at 35° C. overnight. […]
# VRE = experiment: Minimum bactericidal concentration (MBC) test, VRE; format: cell-based, vancomycin resistant Enterococcus faecium
# Procedure: as §1, §2
# (§4) The MBC was determined by a tube double dilution method. Solutions of the test compounds was prepared and serially diluted. Each of the solutions was mixed with a bacterium suspension (10^6 CFU/mL), and then was incubated at 35° C. overnight. 0.1 mL of the culture supernatant of each tubes was inoculated on a plate containing no antibiotics, and then incubated at 35° C. for 18 h.
# gram-positive bacteria [2] = experiment: MIC against 120 strains of clinically isolated gram-positive bacteria; format: cell-based; details: 120 clinically isolated gram-positive strains
# Source text: In order to further study the antibacterial spectrum of Compound 13f, we tested in vitro inhibitory activity of compound 13f on 120 strains of gram-positive bacteria established by clinical isolation, and the MIC values were shown in Table 3.
# (§5) Clinically isolated strains: There are total 120 clinical strains of gram-positive bacterium including: 37 strains of Staphylococcus aureus (consisting of 14 strains of methicillin sensitive Staphylococcus aureus MSSA and 23 strains of methicillin resistant Staphylococcus aureus MRSA); 27 strains of Streptococcus pneumoniae (consisting of 13 strains of penicillin sensitive Streptococcus pneumoniae PSSP and 14 strains of penicillin insensitive or resistant Streptococcus pneumoniae PISP+PRSP); 15 strains of Streptococcus pyogenes; 17 strains of Streptococcus agalactiae; 24 stains of Enterococcus faecium (consisting of 12 strains of vancomycin sensitive Enterococcus faecium and 12 strains of vancomycin resistant Enterococcus faecium).
# (§6) The minimal inhibitory concentration (MIC) of the test compounds on the strains of Streptococcus pneumoniae was determined by a standard broth macrodilution method, while the MIC of the test compounds on the other bacteria stains was determined by standard agar double dilution methods. […] The MIC of the test compound to each strain of the bacteria was determined.
# gram-positive bacteria [3] = experiment: MBC test, 10 strains of clinically isolated gram-positive bacteria; format: cell-based
# Procedure: In order to investigate whether the antibacterial activity of Compound 13f is bacteriostatic or bactericidal to gram-positive bacteria, we tested its MBC on 10 strains of gram-positive bacteria (established by clinical isolation), results as shown in Table 4.
# as §4
# Streptococcus pyogenes = experiment: MIC against clinically isolated strains, Streptococcus pyogenes; format: cell-based; set-up: MICmode / MICrange: unit not given here; details: Streptococcus pyogenes (15 strains)
# Source text: (§7) Standard strains, including Staphylococcus aureus ATCC29213, S. pneumoniae ATCC49619, E. faecalis ATCC29212, are all available from the American Type Culture Collection.
# as §5
# (§8) (2) Tested compounds: Compound 13f was prepared by the methods above, with potency of over 98%; Linezolid was purchased from Pfizer, with potency of 100%.
# as §1, §6
# PSSP [4] = experiment: Minimum bactericidal concentration (MBC) test, PSSP; format: cell-based, penicillin sensitive Streptococcus pneumoniae; details: strain 09G343, PSSP
# Procedure: as §1, §2, §3
# VSE = experiment: Minimum bactericidal concentration (MBC) test, VSE; format: cell-based, vancomycin sensitive Enterococcus faecium
# Procedure: as §1, §2, §4
# PNSSP = experiment: Minimum bactericidal concentration (MBC) test, PNSSP; format: cell-based, Streptococcus pneumoniae; details: strain 09J699, PNSSP
# Procedure: as §1, §2, §3
# MSSA [5] = experiment: Minimum bactericidal concentration (MBC) test, MSSA; format: cell-based, methicillin sensitive Staphylococcus aureus; details: for MIC: MSSA
# Procedure: as §1, §2, §4
# PNSP = experiment: MIC against clinically isolated strains, PNSP; format: cell-based, penicillin insensitive or resistant Streptococcus pneumoniae; set-up: MICmode / MICrange: unit not given here; details: PNSP (14 grains)
# Source text: as §7, §5, §8, §1, §6
# MRSA [6] = experiment: MIC against clinically isolated strains, MRSA; format: cell-based, methicillin resistant Staphylococcus aureus; set-up: MICmode / MICrange: unit not given here; details: MRSA (23 strains)
# Source text: as §7, §5, §8, §1, §6
# MSSA [7] = experiment: MIC against clinically isolated strains, MSSA; format: cell-based, methicillin sensitive Staphylococcus aureus; set-up: MICmode / MICrange: unit not given here; details: MSSA (14 strains)
# Source text: as §7, §5, §8, §1, §6
# PSSP [8] = experiment: MIC against clinically isolated strains, PSSP; format: cell-based, penicillin sensitive Streptococcus pneumoniae; set-up: MICmode / MICrange: unit not given here
# Source text: as §7, §5, §8, §1, §6
# [9] = Enterococcus, strain 09ZB145, VRE
# [10] = Enterococcus faecium, strain 09D263, VSE
# [11] = Staphylococcus aureus, strain 09U035, MSSA
# [12] = Streptococcus pneumoniae, PSSP (13 strains)
compound,measurement,setting,value
"CC(=O)NC[C@H]1CN(c2ccc(-n3cc(-c4ccccn4)cn3)c(F)c2)C(=O)O1 [Compound 13f, (S)-N-((3-(3-fluoro-4-(4-(pyridin-2-yl)-1H-pyrazol-1-yl)phenyl)-2-oxooxazolidin-5-yl)methyl)acetamide]",MBC/MIC,"MRSA [1]; strain 09L075, MRSA",2
same,MIC value,"MRSA [1]; strain 09L075, MRSA",2 ng/mL
same,MBC/MIC,"MRSA [1]; strain 09N120, MRSA",1
same,MBC,VRE; [9],8 ng/mL
same,MIC,VRE; [9],4 ng/mL
same,MBC value,"VRE; strain 09ZB137, VRE",8 ng/mL
same,MBC/MIC,"VRE; strain 09ZB137, VRE",2
same,MIC value,"VRE; strain 09ZB137, VRE",4 ng/mL
same,MBC/MIC,"VRE; strain 09ZB145, VRE",2
same,antibacterial activity on test strains compared with Linezolid,gram-positive bacteria [2],almost the same with that of Linezolid
same,MBC/MIC ratio,gram-positive bacteria [3]; 3 of 4 tested strains of E. faecalis,4
same,ratio of MBC/MIC,gram-positive bacteria [3]; Staphylococcus sp. and Streptococcus pneumoniae,1-2
same,ratio of MBC/MIC,gram-positive bacteria [3]; all the 10 tested strains,≤ 4
same,bacteriostatic or bactericidal,"gram-positive bacteria [3]; all the 10 tested strains, MBC/MIC ≦4",bactericidal effect
same,MIC50,Streptococcus pyogenes,0.25 ng/mL
same,MIC90,Streptococcus pyogenes,0.5 ng/mL
same,MICmode,Streptococcus pyogenes,0.25
same,MICrange,Streptococcus pyogenes,0.25-0.5
same,MBC,PSSP [4]; Streptococcus pneumoniae,1 ng/mL
same,MIC,PSSP [4]; Streptococcus pneumoniae,0.5 ng/mL
same,MBC/MIC,PSSP [4],2
same,MBC,VSE; [10],8 ng/mL
same,MIC,VSE; [10],4 ng/mL
same,MBC/MIC,"VSE; strain 09D263, VSE",2
same,MBC value,"VSE; strain 09H202, VSE",8 ng/mL
same,MBC/MIC,"VSE; strain 09H202, VSE",2
same,MIC value,"VSE; strain 09H202, VSE",4 ng/mL
same,MBC,PNSSP; Streptococcus pneumoniae,2 ng/mL
same,MIC,PNSSP; Streptococcus pneumoniae,1 ng/mL
same,MBC/MIC,PNSSP,2
same,MIC,"MSSA [5]; Staphylococcus aureus, strain 09O077, MSSA",1 ng/mL
same,MIC,MSSA [5]; [11],2 ng/mL
same,MBC,MSSA [5]; [11],2 ng/mL
same,MBC value,"MSSA [5]; strain 09O077, MSSA",2 ng/mL
same,MBC/MIC,"MSSA [5]; strain 09O077, MSSA",2
same,MBC/MIC,"MSSA [5]; strain 09U035, MSSA",1
same,MICmode,PNSP,0.5
same,MICrange,PNSP,0.5-1
same,MIC50,PNSP; Streptococcus pneumoniae,0.5 ng/mL
same,MIC90,PNSP; Streptococcus pneumoniae,1 ng/mL
same,MICmode,MRSA [6],1
same,MICrange,MRSA [6],0.5-1
same,MIC50,MRSA [6]; Staphylococcus aureus,1 ng/mL
same,MIC90,MRSA [6]; Staphylococcus aureus,1 ng/mL
same,MICmode,MSSA [7],1
same,MICrange,MSSA [7],0.5-1
same,MIC50,MSSA [7]; Staphylococcus aureus,1 ng/mL
same,MIC90,MSSA [7]; Staphylococcus aureus,1 ng/mL
same,MICrange,PSSP [8]; PSSP (13 grains),0.5-1
same,MICmode,PSSP [8]; PSSP (13 strains),1
same,MIC50,PSSP [8]; [12],1 ng/mL
same,MIC90,PSSP [8]; [12],1 ng/mL
